Here are results for 24 compounds from patent publication US20240376090A1, “ISOXAZOLE DERIVATIVES AS MODULATORS OF THE 5-HT2A SEROTONIN RECEPTOR USEFUL FOR THE TREATMENT OF DISORDERED RELATED THERETO” (Arena Pharmaceuticals, Inc., priority 2020, published 2024).

The target in assay [1] is T1, 5-HT2A receptor (Homo sapiens (Human), UniProt P28223). The assay is described as follows: HTRF IP-One antagonist assay, 5-HT2A. Conditions: HEK293 cells stably expressing recombinant human receptor; IP accumulation with 80 nM 5-HT. Type of assay: cell-based. How it is done:
(§1) HEK293 cells stably expressing 5-HT2 receptors were generated using standard procedures. Cells were dilution cloned and clonal cell lines stably expressing the receptors at low levels were selected for pharmacology studies. In radioligand binding studies using a variety of radiolabeled probes, receptor densities in the 2A, 2B and 2C cell lines were estimated to be 50-70, 150-200, and 10-20 fmol/mg, respectively.
(§2) Inositol phosphate accumulation assays were performed using the HTRF IP-One assay system developed by Cisbio and generally followed the manufacturer's instructions. Briefly, HEK293 cells stably expressing recombinant human receptors were harvested and resuspended in phenol-red free OptiMEM (ThermoFisher), plated into 384-well assay plates (Perkin Elmer, ProxiPlate-Plus® Cat #6008280) at 10,000 cells/well in a volume of 10 μL/well, and incubated overnight at 37° C., 5% CO2. Test compounds were solubilized and serially diluted in DMSO, and then diluted into Assay Buffer (Tris HCl 20 mM, NaCl 150 mM, LiCl 40 mM, pargyline 25 μM, pH 8) containing 80 nM 5-HT. Test compounds were added to the cells (4 μL/well addition, maximal final assay concentration typically 10 μM) and plates, incubated for 2 hrs at 37° C./5% CO2 and then removed from the incubator and allowed to cool to room temperature for 30 minutes prior to addition of IP-One detection reagents. IP-One detection reagents (6 μL/well) were added and plates incubated for 1 hr at room temperature before reading on an HTRF compatible reader such as a Perkin Elmer EnVision® or BMG PheraStar®. Dose-response experiments utilized 10-point curves, typically starting at 10 μM, with 5-fold serial dilutions. Experiments were performed with triplicate data points and independent replicate experiments were performed to ensure data consistency.
On the technique in general: In TR-FRET formats the signal depends on donor and acceptor labels being close together.

The target of assay [2] is T1, 5-HT2A receptor. The assay is described as follows: Radioligand binding assay ([3H]5-HT competition), 5-HT2A. Conditions: [3H]5-HT radioligand, membranes of HEK293 cells expressing recombinant 5-HT2A; Ki from IC50 by Cheng-Prusoff; read-out: 5-HT2A serotonin binding Ki value.
A further assay deals with 5-HT2B receptor (Homo sapiens (Human), UniProt P41595). The assay is described as follows: HTRF IP-One antagonist assay, 5-HT2B. The class given is cell-based. Conditions: HEK293 cells stably expressing recombinant human receptor; IP accumulation with 80 nM 5-HT. How it is done:
as §1, §2

In a further assay the target is 5-HT2C receptor (Homo sapiens (Human), UniProt P28335). The experiment in a line: HTRF IP-One antagonist assay, 5-HT2C. Type of assay: cell-based. Conditions: HEK293 cells stably expressing recombinant human receptor; IP accumulation with 80 nM 5-HT. As for the experimental part:
as §1, §2

Chain of 5-HT2B receptor (P41595 whole entry): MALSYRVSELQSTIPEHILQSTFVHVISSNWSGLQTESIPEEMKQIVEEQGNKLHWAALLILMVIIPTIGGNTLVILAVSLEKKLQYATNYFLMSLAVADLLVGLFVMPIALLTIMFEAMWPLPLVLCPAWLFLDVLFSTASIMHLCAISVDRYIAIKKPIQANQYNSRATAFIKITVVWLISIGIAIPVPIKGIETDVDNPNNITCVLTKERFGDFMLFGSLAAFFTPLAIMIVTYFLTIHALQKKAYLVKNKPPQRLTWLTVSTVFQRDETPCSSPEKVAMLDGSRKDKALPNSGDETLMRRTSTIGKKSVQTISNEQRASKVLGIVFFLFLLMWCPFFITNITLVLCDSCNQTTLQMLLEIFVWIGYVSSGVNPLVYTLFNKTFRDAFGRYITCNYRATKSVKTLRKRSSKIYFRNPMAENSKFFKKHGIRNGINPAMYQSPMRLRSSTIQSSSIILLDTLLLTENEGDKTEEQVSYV
Chain of 5-HT2C receptor (P28335 33-458): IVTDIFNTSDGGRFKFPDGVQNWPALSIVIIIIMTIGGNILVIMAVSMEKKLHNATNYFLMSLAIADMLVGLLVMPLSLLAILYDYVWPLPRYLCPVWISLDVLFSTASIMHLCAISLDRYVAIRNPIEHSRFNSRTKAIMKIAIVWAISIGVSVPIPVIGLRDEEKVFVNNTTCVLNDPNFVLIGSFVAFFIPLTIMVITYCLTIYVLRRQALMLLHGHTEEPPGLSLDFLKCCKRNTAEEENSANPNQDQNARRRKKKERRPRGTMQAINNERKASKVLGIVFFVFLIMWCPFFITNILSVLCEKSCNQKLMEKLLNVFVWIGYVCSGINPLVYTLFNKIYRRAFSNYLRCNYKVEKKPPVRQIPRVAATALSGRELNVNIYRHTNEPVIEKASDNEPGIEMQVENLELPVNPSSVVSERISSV
T1 sequence (P28223 whole entry): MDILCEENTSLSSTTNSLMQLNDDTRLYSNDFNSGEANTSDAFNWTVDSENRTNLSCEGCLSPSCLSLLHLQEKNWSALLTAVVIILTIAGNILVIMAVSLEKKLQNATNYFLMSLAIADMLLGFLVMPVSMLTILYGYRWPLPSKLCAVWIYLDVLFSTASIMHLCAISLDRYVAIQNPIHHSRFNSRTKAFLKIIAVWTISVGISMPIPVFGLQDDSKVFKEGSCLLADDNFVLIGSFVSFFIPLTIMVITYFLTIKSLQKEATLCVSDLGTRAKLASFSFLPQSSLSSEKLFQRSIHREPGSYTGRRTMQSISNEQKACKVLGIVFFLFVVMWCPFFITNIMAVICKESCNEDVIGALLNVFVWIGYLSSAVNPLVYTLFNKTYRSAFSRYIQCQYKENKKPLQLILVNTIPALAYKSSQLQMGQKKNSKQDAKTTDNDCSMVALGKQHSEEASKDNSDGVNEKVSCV

With `Cc1noc(C)c1-c1cc(NC(=O)C2(F)CC2)ccc1OCCN1CCCC1` [Compound 113, N-[3-(3,5-dimethylisoxazol-4-yl)-4-(2-pyrrolidin-1-ylethoxy)phenyl]-1-fluoro-cyclopropanecarboxamide], the results for the IC50 at 5-HT2A receptor [1], at 5-HT2B receptor and on 5-HT2C receptor were 8.95 nM, at least 100000 nM and at least 100000 nM, respectively. On 5-HT2A receptor [2], the Ki is 2.66 nM.
`Cc1noc(C)c1-c1cc(NC(=O)c2c(F)cnn2C)ccc1OCCN1CCCC1` [Compound 114, N-(3-(3,5-dimethylisoxazol-4-yl)-4-(2-(pyrrolidin-1-yl)ethoxy)phenyl)-4-fluoro-1-methyl-1H-pyrazole-5-carboxamide]: the IC50 is 8.69 nM at 5-HT2A receptor [1], at least 100000 nM at 5-HT2B receptor and at least 100000 nM on 5-HT2C receptor. For the same compound, the Ki on 5-HT2A receptor [2] is 2.6 nM.
For the compound `Cc1noc(C)c1-c1cc(NC(=O)C2(F)CC2)ccc1OCCN1CCC1` [Compound 117, N-[4-[2-(azetidin-1-yl)ethoxy]-3-(3,5-dimethylisoxazol-4-yl)phenyl]-1-fluoro-cyclopropanecarboxamide], the half-maximal inhibitory concentration (IC50) on 5-HT2A receptor [1] was 20.6 nM; at 5-HT2B receptor, at least 100000 nM; on 5-HT2C receptor it was at least 100000 nM. Further, the Ki at 5-HT2A receptor [2] came out at 10.3 nM.
Regarding `Cc1ncsc1C(=O)Nc1ccc(OCCN2CCC2)c(-c2c(C)noc2C)c1` [Compound 119, N-(4-(2-(azetidin-1-yl)ethoxy)-3-(3,5-dimethylisoxazol-4-yl)phenyl)-4-methylthiazole-5-carboxamide], the IC50 is 13 nM on 5-HT2A receptor [1], at least 100000 nM on 5-HT2B receptor and at least 100000 nM on 5-HT2C receptor. Moreover, the inhibition constant (Ki) on 5-HT2A receptor [2] came to 9.58 nM.
Take `Cc1noc(C)c1-c1cc(NC(=O)c2ccc(F)cc2)ccc1OCCN1CCC1` [Compound 121, N-(4-(2-(azetidin-1-yl)ethoxy)-3-(3,5-dimethylisoxazol-4-yl)phenyl)-4-fluorobenzamide]: the IC50 on 5-HT2A receptor [1] amounted to 29.7 nM. The Ki at 5-HT2A receptor [2] was 4.67 nM.
In the same order, the values of `COc1cccc(C(=O)Nc2ccc(OCCN3CCC3)c(-c3c(C)noc3C)c2)c1` [Compound 122, N-(4-(2-(azetidin-1-yl)ethoxy)-3-(3,5-dimethylisoxazol-4-yl)phenyl)-3-methoxybenzamide] are 8.92 nM and 2.7 nM.
Consider `Cc1noc(C)c1-c1cc(NC(=O)Cc2cccc(F)c2)ccc1OCCN1CCC1` [Compound 125, N-(4-(2-(azetidin-1-yl)ethoxy)-3-(3,5-dimethylisoxazol-4-yl)phenyl)-2-(3-fluorophenyl)acetamide], for which the IC50 is 38.2 nM at 5-HT2A receptor [1] and at least 100000 nM on 5-HT2B receptor. The Ki on 5-HT2A receptor [2] worked out at 4.5 nM.
On to `Cc1noc(C)c1-c1cc(NC(=O)C2CC2)ccc1OCCN1CCC2(CCC(=O)O2)CC1` [Compound 141, N-(3-(3,5-dimethylisoxazol-4-yl)-4-(2-(2-oxo-1-oxa-8-azaspiro[4.5]decan-8-yl)ethoxy)phenyl)cyclopropanecarboxamide], for which the IC50 on 5-HT2A receptor [1] is 49.7 nM; on 5-HT2B receptor it was at least 100000 nM; at 5-HT2C receptor, at least 100000 nM. On 5-HT2A receptor [2], the Ki came to 9.47 nM.
Turning to `CO[C@H]1CCN(CCOc2ccc(NC(=O)C3CC3)cc2-c2c(C)noc2C)C1` [Compound 144, (S)—N-(3-(3,5-dimethylisoxazol-4-yl)-4-(2-(3-methoxypyrrolidin-1-yl)ethoxy)phenyl)cyclopropanecarboxamide], the IC50 on 5-HT2A receptor [1] was 85.5 nM; on 5-HT2B receptor it was at least 100000 nM; at 5-HT2C receptor, at least 100000 nM. Besides, the Ki at 5-HT2A receptor [2] worked out at 14.9 nM.
On to `Cc1noc(C)c1-c1cc(NC(=O)C2CC2)ccc1OCCN1CCC(O)CC1` [Compound 146, N-(3-(3,5-dimethylisoxazol-4-yl)-4-(2-(4-hydroxypiperidin-1-yl)ethoxy)phenyl)cyclopropanecarboxamide], for which the IC50 on 5-HT2A receptor [1] is 15.7 nM; at 5-HT2B receptor, at least 100000 nM; on 5-HT2C receptor, at least 100000 nM. Also, the Ki at 5-HT2A receptor [2] came out at 5.08 nM.
With `Cc1noc(C)c1-c1cc(NC(=O)C2CC2)ccc1OC[C@H]1CCCCN1` [Compound 169, N-[3-(3,5-dimethylisoxazol-4-yl)-4-[[(2R)-2-piperidyl]methoxy]phenyl]cyclopropanecarboxamide], the IC50 on 5-HT2A receptor [1] is 13 nM; on 5-HT2B receptor, at least 100000 nM; on 5-HT2C receptor, at least 100000 nM. Further, the Ki on 5-HT2A receptor [2] is 2.16 nM.
Consider `Cc1noc(C)c1-c1cc(NC(=O)C2CC2)ccc1OC1CNC1` [Compound 172, N-(4-(azetidin-3-yloxy)-3-(3,5-dimethylisoxazol-4-yl)phenyl)cyclopropanecarboxamide], for which the IC50 at 5-HT2A receptor [1] was 109 nM; at 5-HT2B receptor it was at least 100000 nM. Further, the Ki at 5-HT2A receptor [2] stood at 6.5 nM.
Regarding `Cc1nscc1C(=O)Nc1ccc(OC[C@H]2CCCCN2)c(-c2c(C)noc2C)c1` [Compound 187, (R)—N-(3-(3,5-dimethylisoxazol-4-yl)-4-(piperidin-2-ylmethoxy)phenyl)-3-methylisothiazole-4-carboxamide], the IC50 was 36.2 nM at 5-HT2A receptor [1], at least 100000 nM at 5-HT2B receptor and at least 100000 nM on 5-HT2C receptor. Besides, the Ki at 5-HT2A receptor [2] amounted to 4.01 nM.
Turning to `Cc1noc(C)c1-c1cc(NC(=O)c2cccn2C)ccc1OC[C@H]1CCCCN1` [Compound 189, (R)—N-(3-(3,5-dimethylisoxazol-4-yl)-4-(piperidin-2-ylmethoxy)phenyl)-1-methyl-1H-pyrrole-2-carboxamide], the results for the IC50 on 5-HT2A receptor [1], on 5-HT2B receptor and on 5-HT2C receptor were 24.9 nM, at least 100000 nM and at least 100000 nM, respectively. Moreover, the Ki on 5-HT2A receptor [2] came to 3.92 nM.
For the compound `Cc1noc(C)c1-c1cc(NC(=O)[C@H]2C[C@H]2F)ccc1OC[C@H]1CCCCN1` [Compound 191, (1R,2R)—N-(3-(3,5-dimethylisoxazol-4-yl)-4-(((R)-piperidin-2-yl)methoxy)phenyl)-2-fluorocyclopropane-1-carboxamide], the IC50 was 60.1 nM at 5-HT2A receptor [1], at least 100000 nM at 5-HT2B receptor and at least 100000 nM on 5-HT2C receptor. In addition, the Ki on 5-HT2A receptor [2] stood at 7.61 nM.
For the compound `Cc1noc(C)c1-c1cc(NC(=O)[C@@H]2C[C@@H]2F)ccc1OC[C@H]1CCCCN1` [Compound 192, (1S,2S)—N-(3-(3,5-dimethylisoxazol-4-yl)-4-(((R)-piperidin-2-yl)methoxy)phenyl)-2-fluorocyclopropane-1-carboxamide], the half-inhibitory concentration (IC50) at 5-HT2A receptor [1] was 31.1 nM; on 5-HT2B receptor, at least 100000 nM. Further, the Ki at 5-HT2A receptor [2] worked out at 4.91 nM.
In the same order, the values of `Cc1noc(C)c1-c1cc(NC(=O)C2(F)CC2)ccc1OC[C@H]1CCCCN1` [Compound 217, (R)—N-(3-(3,5-dimethylisoxazol-4-yl)-4-(piperidin-2-ylmethoxy)phenyl)-1-fluorocyclopropane-1-carboxamide] are 5.19 nM, at least 100000 nM and 1.21 nM.
Consider `Cc1ncsc1CC(=O)Nc1ccc(OC[C@H]2CCCCN2)c(-c2c(C)noc2C)c1` [Compound 225, (R)—N-(3-(3,5-dimethylisoxazol-4-yl)-4-(piperidin-2-ylmethoxy)phenyl)-2-(4-methylthiazol-5-yl)acetamide], for which the results for the IC50 at 5-HT2A receptor [1] and on 5-HT2B receptor were 19.7 nM and at least 100000 nM, respectively. Further, on 5-HT2A receptor [2], the Ki was 3.18 nM.
Taken in the same sequence, the figures for `Cc1noc(C)c1-c1cc(NC(=O)c2c(F)cnn2C)ccc1OC[C@H]1CCCCN1` [Compound 230, (R)—N-(3-(3,5-dimethylisoxazol-4-yl)-4-(piperidin-2-ylmethoxy)phenyl)-4-fluoro-1-methyl-1H-pyrazole-5-carboxamide] were 6.17 nM, at least 100000 nM and 6.17 nM.
On to `Cc1noc(C)c1-c1cc(NC(=O)C2(F)CC2)ccc1O[C@@H]1CCCNC1` [Compound 235, (R)—N-(3-(3,5-dimethylisoxazol-4-yl)-4-(piperidin-3-yloxy)phenyl)-1-fluorocyclopropane-1-carboxamide], for which, on 5-HT2A receptor [2], the Ki is 45.2 nM.
Still for that read-out and setting: the figure for `Cc1noc(C)c1-c1cc(N(C)C(=O)C2CC2)ccc1OC[C@H]1CCCCN1` [Compound 236, N-[3-(3,5-dimethylisoxazol-4-yl)-4-[[(2R)-2-piperidyl]methoxy]phenyl]-N-methyl-cyclopropanecarboxamide] is 63900 nM; for `COCCNCCOc1ccc(NC(=O)C2(F)CC2)cc1-c1c(C)noc1C` [Compound 237, N-[3-(3,5-dimethylisoxazol-4-yl)-4-[2-(2-methoxyethylamino)ethoxy]phenyl]-1-fluoro-cyclopropanecarboxamide] it is 1.14 nM; for `Cc1noc(C)c1-c1cc(NC(=O)C2(F)CC2)ccc1O[C@H]1CCNC1` [Compound 239, (S)—N-(3-(3,5-dimethylisoxazol-4-yl)-4-(pyrrolidin-3-yloxy)phenyl)-1-fluorocyclopropane-1-carboxamide] it is 59.4 nM.
Turning to “N-(4-(2-(azetidin-1-yl)ethoxy)-3-(3,5-dimethylisoxazol-4-yl)phenyl)-2-(5-fluoropyridin-2-yl)acetamide [Compound 129]”, the Ki on 5-HT2A receptor [2] came out at 182 nM.

The term IC50 denotes the concentration at which inhibition is half-maximal. By Ki is commonly meant the equilibrium dissociation constant of an inhibitor or competing ligand from its target.
